Experimental data taken from patent publication US8907153B2, “Adhesive peel-forming formulations for dermal delivery of drugs and methods of using the same” (Nuvo Research Inc., priority 2004, dated 2014).
Where two headings read alike, the source gives them in different places.

Conditions: hairless mouse skin, 35° C., mean and SD of three

CCCN1CCCC[C@H]1C(=O)Nc1c(C)cccc1C [Ropivacaine]
Average flux (steady-state flux of ropivacaine) (saturated in Glycerin): 1.2 ± 0.7 mcg/cm^2/h
Average flux (steady-state flux of ropivacaine) (saturated in ISA (isostearic acid)): 11 ± 2 mcg/cm^2/h
Average flux (steady-state flux of ropivacaine) (saturated in Mineral Oil): 8.9 ± 0.6 mcg/cm^2/h
Average flux (steady-state flux of ropivacaine) (saturated in Span 20): 26 ± 8 mcg/cm^2/h
Average flux (steady-state flux of ropivacaine) (saturated in Tween 20): 2.4 ± 0.1 mcg/cm^2/h
